Assay results reported in US10800791B2, “Triazole ACC inhibitors and uses thereof” (Gilead Apollo, LLC, priority 2015, dated 2020).
pIC50: −log10 of the molar value. Converted amounts (≈) assume the structure as drawn. Read-outs that look alike come from different tables or passages of the source.

Columns and labels:
[1] = target: human (hACC2) (Homo sapiens, UniProt O00763); assay: In vitro ACC inhibition assay (ADP-Glo), hACC2; assay type: biochemical; conditions: 5 nM ACC2, 20 μM ATP, 20 μM acetyl-CoA
Chain of human (hACC2) (O00763 whole entry): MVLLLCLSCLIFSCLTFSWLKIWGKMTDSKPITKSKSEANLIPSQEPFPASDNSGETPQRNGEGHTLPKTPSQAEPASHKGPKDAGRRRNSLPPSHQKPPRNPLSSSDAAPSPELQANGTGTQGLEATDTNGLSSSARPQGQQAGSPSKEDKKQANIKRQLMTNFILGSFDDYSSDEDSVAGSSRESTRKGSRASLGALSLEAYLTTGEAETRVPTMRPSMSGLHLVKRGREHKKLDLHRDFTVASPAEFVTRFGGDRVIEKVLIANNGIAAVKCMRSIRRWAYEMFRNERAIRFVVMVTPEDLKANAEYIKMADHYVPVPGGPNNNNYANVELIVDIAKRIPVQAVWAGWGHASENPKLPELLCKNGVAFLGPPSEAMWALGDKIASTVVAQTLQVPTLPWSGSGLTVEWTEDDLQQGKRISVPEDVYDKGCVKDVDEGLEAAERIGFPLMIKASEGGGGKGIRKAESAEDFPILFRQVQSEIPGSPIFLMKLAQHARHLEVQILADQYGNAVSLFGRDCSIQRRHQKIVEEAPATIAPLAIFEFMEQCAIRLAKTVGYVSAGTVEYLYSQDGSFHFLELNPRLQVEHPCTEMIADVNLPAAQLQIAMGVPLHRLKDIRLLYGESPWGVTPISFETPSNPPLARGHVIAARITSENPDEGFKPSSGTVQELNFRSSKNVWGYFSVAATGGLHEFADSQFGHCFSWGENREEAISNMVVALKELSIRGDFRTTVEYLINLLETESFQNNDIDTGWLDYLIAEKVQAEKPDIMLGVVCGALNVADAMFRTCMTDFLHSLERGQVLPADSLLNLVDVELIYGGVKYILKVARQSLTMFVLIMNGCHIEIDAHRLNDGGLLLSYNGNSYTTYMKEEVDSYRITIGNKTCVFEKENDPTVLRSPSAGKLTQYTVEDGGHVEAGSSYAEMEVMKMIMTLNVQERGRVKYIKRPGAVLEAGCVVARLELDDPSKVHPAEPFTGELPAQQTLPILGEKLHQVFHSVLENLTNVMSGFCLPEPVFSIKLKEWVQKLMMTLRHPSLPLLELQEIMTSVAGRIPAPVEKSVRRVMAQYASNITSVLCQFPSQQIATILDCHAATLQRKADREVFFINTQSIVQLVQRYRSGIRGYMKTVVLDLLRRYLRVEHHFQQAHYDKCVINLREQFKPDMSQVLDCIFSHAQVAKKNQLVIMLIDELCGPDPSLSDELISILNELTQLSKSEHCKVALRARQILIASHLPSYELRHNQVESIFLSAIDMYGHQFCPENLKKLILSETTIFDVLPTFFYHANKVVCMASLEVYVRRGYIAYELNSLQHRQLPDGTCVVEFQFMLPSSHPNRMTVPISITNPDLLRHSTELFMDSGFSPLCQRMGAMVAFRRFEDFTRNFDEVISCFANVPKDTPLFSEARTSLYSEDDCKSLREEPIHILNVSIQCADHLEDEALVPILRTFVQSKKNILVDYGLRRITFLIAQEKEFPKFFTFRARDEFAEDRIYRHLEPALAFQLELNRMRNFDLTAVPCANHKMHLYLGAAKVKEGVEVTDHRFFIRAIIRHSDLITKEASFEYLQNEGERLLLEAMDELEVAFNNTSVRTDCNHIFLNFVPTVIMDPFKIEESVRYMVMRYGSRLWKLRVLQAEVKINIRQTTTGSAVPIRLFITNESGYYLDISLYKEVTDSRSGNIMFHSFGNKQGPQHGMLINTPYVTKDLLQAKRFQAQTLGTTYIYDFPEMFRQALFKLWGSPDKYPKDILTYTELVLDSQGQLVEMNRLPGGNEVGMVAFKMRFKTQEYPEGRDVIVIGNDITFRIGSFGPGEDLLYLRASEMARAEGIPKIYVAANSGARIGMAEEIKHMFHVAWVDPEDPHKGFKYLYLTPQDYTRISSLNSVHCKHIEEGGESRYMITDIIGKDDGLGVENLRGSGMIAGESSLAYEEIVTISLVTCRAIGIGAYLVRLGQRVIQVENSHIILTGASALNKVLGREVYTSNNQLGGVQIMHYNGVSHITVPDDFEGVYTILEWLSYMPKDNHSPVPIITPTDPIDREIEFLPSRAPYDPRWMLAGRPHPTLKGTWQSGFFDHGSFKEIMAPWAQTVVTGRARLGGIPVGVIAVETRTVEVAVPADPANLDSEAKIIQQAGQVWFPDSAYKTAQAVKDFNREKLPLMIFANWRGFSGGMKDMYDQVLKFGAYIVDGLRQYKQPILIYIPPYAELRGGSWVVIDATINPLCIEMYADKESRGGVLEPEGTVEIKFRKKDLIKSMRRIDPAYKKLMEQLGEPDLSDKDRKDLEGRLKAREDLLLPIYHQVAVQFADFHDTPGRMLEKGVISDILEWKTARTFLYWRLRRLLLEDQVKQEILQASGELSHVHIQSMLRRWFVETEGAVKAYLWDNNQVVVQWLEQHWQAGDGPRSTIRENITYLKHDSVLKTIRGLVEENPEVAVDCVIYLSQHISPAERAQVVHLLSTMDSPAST
Description: The detailed procedure is as follows. […] 10 μL ADP glo reagent was added. […] 20 μL kinase detection reagent was added.

[2] = tested on: C. albicans; assay: Antifungal Activity Assay (broth microtiter MIC), C. albicans; assay type: cell-based, Candida albicans; conditions: for MIC: Candida albicans, ATCC90028, 48 h
Description: (§1) Compounds of the present invention were evaluated in an Antifungal Activity Assay. An exemplary procedure for the assay, which measures the susceptibility of various Candida species to antifungal compounds, follows. Compounds to be tested (including fluconazole and amphotericin B) were dissolved in DMSO to obtain a solution having a concentration of 1 mg/mL. These stock solutions were sterile filtered using a 0.22 um nylon syringe filter, then diluted in sterile water to achieve a final concentration of 128 μg/mL.
(§2) All species were grown from frozen stock by directly plating on to freshly prepared Sabouraud Dextrose agar (BD, Difco) and incubated overnight in ambient air at 35° C. for 24 h. A direct suspension was prepared in RPMI 1640+MOPS (Lonza, Biowhittaker) by taking individual colonies from the overnight cultures using sterile swabs soaked in sterile saline. The concentration of the suspension was determined using pre-determined standard curves. These suspensions were then diluted down to 5×10^3 CFU/mL to achieve a final concentration of 2.5×10^3 CFU/mL once added to the microtiter plate as per CLSI guidelines (M27-A3, Vol. 28 No. 14).
(§3) Broth microtiter MIC challenge plates were prepared following CLSI guidelines (M27-A3, Vol. 28 No. 14). The original CLSI guidelines focused on reading Candida MICs after 48 h of incubation. As reading after only 24 h offers a clear advantage of patient care, QC limits are being established for all drugs at 24 h. That being said there are no known interpretive breakpoints for amphotericin B at 24 h and the current fluconazole interpretive breakpoints are based on a 48 h reading. The MICs for the test compounds were recorded at 48 h. All MIC determinations were achieved by visually comparing the growth found in the antibiotic challenged wells to that of the growth control.

[3] = tested on: C. krusei; assay: Antifungal Activity Assay (broth microtiter MIC), C. krusei; assay type: cell-based, Candida krusei; conditions: for MIC: Pichia kudriavzevii, ATCC6258, 48 h
Description: as §1, §2, §3

[4] = tested on: C. parapsilosis; assay: Antifungal Activity Assay (broth microtiter MIC), C. parapsilosis; assay type: cell-based, Candida parapsilosis; conditions: for MIC: Lodderomyces parapsilosis, ATCC22019, 48 h
Description: as §1, §2, §3

[5] = target: fungal (fACC2) (UniProt Q00955); conditions: read-out: fACC2 (in vitro ACC2 Inhibition Assay, IC50), ADP-Glo, 5 nM ACC2, 20 μM ATP, 20 μM acetyl-CoA
Chain of fungal (fACC2) (Q00955 whole entry): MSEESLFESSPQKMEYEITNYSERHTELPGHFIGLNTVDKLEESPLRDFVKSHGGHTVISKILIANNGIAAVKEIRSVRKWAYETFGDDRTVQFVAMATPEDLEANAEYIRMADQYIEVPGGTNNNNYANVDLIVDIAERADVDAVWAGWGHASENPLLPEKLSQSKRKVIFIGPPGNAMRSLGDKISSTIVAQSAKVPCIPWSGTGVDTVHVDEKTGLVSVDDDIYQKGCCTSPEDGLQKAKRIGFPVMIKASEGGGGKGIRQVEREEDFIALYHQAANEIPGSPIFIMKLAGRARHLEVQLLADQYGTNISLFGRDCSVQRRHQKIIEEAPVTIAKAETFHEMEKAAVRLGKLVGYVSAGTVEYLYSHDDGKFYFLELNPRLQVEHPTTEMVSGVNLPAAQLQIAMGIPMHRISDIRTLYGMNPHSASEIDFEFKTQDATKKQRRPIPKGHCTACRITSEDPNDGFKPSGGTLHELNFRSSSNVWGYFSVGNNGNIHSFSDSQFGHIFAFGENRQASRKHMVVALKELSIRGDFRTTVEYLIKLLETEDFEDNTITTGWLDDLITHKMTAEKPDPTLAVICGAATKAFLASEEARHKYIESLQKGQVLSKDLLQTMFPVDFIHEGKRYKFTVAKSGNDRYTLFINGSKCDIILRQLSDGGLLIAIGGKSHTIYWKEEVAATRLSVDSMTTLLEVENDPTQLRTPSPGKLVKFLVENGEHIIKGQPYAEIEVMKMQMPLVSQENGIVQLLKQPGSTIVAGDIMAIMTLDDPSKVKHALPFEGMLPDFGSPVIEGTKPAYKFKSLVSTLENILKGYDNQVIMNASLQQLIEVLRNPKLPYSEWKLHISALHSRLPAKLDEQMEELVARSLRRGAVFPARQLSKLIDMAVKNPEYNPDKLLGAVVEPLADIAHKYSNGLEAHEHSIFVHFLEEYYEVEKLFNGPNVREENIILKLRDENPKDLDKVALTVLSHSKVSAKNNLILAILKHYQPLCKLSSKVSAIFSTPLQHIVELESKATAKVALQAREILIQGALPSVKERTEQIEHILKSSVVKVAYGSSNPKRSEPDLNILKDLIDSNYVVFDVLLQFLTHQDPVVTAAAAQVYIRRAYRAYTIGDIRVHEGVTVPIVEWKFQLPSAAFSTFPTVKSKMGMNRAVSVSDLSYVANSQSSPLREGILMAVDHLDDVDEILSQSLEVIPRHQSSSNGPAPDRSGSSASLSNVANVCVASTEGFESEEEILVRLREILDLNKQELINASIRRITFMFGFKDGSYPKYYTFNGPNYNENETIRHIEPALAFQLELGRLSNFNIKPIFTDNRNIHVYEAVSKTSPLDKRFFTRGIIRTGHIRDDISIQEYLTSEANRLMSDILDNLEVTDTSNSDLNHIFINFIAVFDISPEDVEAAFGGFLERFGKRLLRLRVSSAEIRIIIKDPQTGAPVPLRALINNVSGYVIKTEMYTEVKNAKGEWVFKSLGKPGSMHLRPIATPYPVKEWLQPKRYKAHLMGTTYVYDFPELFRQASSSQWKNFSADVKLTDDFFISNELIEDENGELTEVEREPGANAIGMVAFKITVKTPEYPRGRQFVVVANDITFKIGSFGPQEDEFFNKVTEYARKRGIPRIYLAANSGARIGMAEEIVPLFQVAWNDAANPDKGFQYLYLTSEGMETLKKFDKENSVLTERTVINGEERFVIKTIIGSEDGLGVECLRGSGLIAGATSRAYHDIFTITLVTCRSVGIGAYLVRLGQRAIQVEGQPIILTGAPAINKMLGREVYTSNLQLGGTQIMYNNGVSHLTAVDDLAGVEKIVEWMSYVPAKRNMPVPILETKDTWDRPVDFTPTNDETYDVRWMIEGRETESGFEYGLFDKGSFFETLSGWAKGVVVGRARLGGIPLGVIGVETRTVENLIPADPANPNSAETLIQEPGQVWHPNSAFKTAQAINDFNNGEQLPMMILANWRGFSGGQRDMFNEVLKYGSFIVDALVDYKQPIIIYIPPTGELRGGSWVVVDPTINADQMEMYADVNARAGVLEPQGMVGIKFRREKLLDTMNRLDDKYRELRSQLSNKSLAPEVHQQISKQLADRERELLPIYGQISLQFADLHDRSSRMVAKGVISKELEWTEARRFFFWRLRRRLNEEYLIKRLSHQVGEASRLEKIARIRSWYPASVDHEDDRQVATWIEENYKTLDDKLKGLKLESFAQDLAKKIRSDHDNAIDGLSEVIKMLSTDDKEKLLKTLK

[6] = Table 3a, ATCC 90028, 3 replicates, MIC recorded at 48 h, read-out: MIC, C. albicans ATCC 90028
[7] = Table 3b (additional results), ATCC 90028, 3 replicates, MIC recorded at 48 h, read-out: MIC, C. albicans ATCC 90028
[8] = Table 3a, ATCC 6258, 3 replicates, MIC recorded at 48 h, read-out: MIC, C. krusei ATCC 6258
[9] = Table 3b (additional results), ATCC 6258, 3 replicates, MIC recorded at 48 h, read-out: MIC, C. krusei ATCC 6258
[10] = Table 3a, ATCC 22019, 3 replicates, MIC recorded at 48 h, read-out: MIC, C. parapsilosis ATCC 22019
[11] = Table 3b (additional results), ATCC 22019, 3 replicates, MIC recorded at 48 h, read-out: MIC, C. parapsilosis ATCC 22019
[12] = Table 3a, 3 replicates, MIC recorded at 48 h
[13] = read-out: MIC, C. albicans ATCC 90028, Table 3b (additional results), 3 replicates, MIC recorded at 48 h
[14] = read-out: MIC, C. krusei ATCC 6258, Table 3b (additional results), 3 replicates, MIC recorded at 48 h
[15] = read-out: MIC, C. parapsilosis ATCC 22019, Table 3b (additional results), 3 replicates, MIC recorded at 48 h

SMILES: COc1ccc(F)cc1[C@H](Cn1c(=O)n(C(C)(C)C(=O)N2CCCC2)c(=O)c2c(C)c(-n3nccn3)sc21)OCC(C)=O [Compound I-98]
- pIC50 ([1]; Table 2a): 8.00 to 8.30
- pIC50 ([1]; Table 2b, additional results): 8.00 to 8.30
- MIC [2, 6]: 2.1 to 4 µg/mL (≈ 3.43 to 6.53 µM)
- MIC [2, 7]: 1.01 to 2 µg/mL (≈ 1.65 to 3.26 µM)
- MIC [3, 8]: 0.25 to 1 µg/mL (≈ 0.408 to 1.63 µM)
- MIC [3, 9]: 2.01 to 4 µg/mL (≈ 3.28 to 6.53 µM)
- MIC [4, 10]: 2.1 to 4 µg/mL (≈ 3.43 to 6.53 µM)
- MIC [4, 11]: 1.01 to 2 µg/mL (≈ 1.65 to 3.26 µM)
- pIC50 ([5]; Table 2a): 8.30 to 9.00
- pIC50 ([5]; Table 2b, additional results): 8.30 to 9.00

SMILES: COc1ccc(F)cc1[C@H](Cn1c(=O)n(C(C)(C)C(=O)NC2CCCCC2)c(=O)c2c(C)c(-n3nccn3)sc21)OCC(C)=O [Compound I-99]
- pIC50 ([1]; Table 2a): 8.30 to 9.00
- pIC50 ([1]; Table 2b, additional results): 8.30 to 9.00
- MIC [2, 6]: 0.25 to 1 µg/mL (≈ 0.39 to 1.56 µM)
- MIC [2, 7]: 1.01 to 2 µg/mL (≈ 1.58 to 3.12 µM)
- MIC [3, 8]: 0.06 to 0.24 µg/mL (≈ 0.0936 to 0.375 µM)
- MIC [3, 9]: 0.25 to 1 µg/mL (≈ 0.39 to 1.56 µM)
- MIC [4, 10]: 0.25 to 1 µg/mL (≈ 0.39 to 1.56 µM)
- MIC [4, 11]: 0.25 to 1 µg/mL (≈ 0.39 to 1.56 µM)
- pIC50 ([5]; Table 2a): 8.30 to 9.00
- pIC50 ([5]; Table 2b, additional results): 8.30 to 9.00

SMILES: COCCO[C@@H](Cn1c(=O)n(C(C)(C)C(=O)NC2CCC2)c(=O)c2c(C)c(-n3nccn3)sc21)c1cc(F)ccc1OC [Compound I-100]
- pIC50 ([1]; Table 2a): 8.30 to 9.00
- pIC50 ([1]; Table 2b, additional results): 8.30 to 9.00
- MIC [2, 7]: 2.01 to 4 µg/mL (≈ 3.27 to 6.51 µM)
- MIC, C. albicans ATCC 90028 [2, 12]: A (MIC of 0.25-1.0 μg/mL)
- MIC, C. krusei ATCC 6258 [3, 12]: AA (MIC of 0.06-0.24 μg/mL)
- MIC, C. krusei ATCC 6258 ([3]; Table 3b (additional results), 3 replicates, MIC recorded at 48 h): A (MIC of 0.25-1.0 μg/mL)
- MIC [4, 11]: 0.25 to 1 µg/mL (≈ 0.407 to 1.63 µM)
- MIC, C. parapsilosis ATCC 22019 [4, 12]: A (MIC of 0.25-1.0 μg/mL)
- pIC50 ([5]; Table 2a): 8.30 to 9.00
- pIC50 ([5]; Table 2b, additional results): 8.30 to 9.00

SMILES: COc1ccccc1[C@H](Cn1c(=O)n(C(C)(C)C(=O)N2CC=CC2)c(=O)c2c(C)c(-n3nccn3)sc21)OC1CCOCC1 [Compound I-101]
- pIC50 ([1]; Table 2a): 8.00 to 8.30
- pIC50 ([1]; Table 2b, additional results): 8.00 to 8.30
- MIC [2, 6]: 0.25 to 1 µg/mL (≈ 0.403 to 1.61 µM)
- MIC [2, 7]: 1.01 to 2 µg/mL (≈ 1.63 to 3.22 µM)
- MIC [3, 8]: 0.25 to 1 µg/mL (≈ 0.403 to 1.61 µM)
- MIC [3, 9]: 1.01 to 2 µg/mL (≈ 1.63 to 3.22 µM)
- MIC [4, 10]: 0.25 to 1 µg/mL (≈ 0.403 to 1.61 µM)
- MIC [4, 11]: 1.01 to 2 µg/mL (≈ 1.63 to 3.22 µM)
- pIC50 ([5]; Table 2a): 8.30 to 9.00
- pIC50 ([5]; Table 2b, additional results): 8.30 to 9.00

SMILES: COc1ccc(F)cc1[C@H](Cn1c(=O)n(C(C)C(=O)NC(C)C)c(=O)c2c(C)c(-n3nccn3)sc21)OCC(C)(C)O (some centres unmarked) [Compound I-132]
- MIC [2, 6]: 0.25 to 1 µg/mL (≈ 0.415 to 1.66 µM)
- MIC [2, 7]: 1.01 to 2 µg/mL (≈ 1.68 to 3.32 µM)
- MIC [3, 8]: 0.25 to 1 µg/mL (≈ 0.415 to 1.66 µM)
- MIC [3, 9]: 2.01 to 4 µg/mL (≈ 3.34 to 6.64 µM)
- MIC [4, 10]: 0.25 to 1 µg/mL (≈ 0.415 to 1.66 µM)
- MIC [4, 11]: 1.01 to 2 µg/mL (≈ 1.68 to 3.32 µM)

SMILES: COc1ccc(F)cc1[C@H](Cn1c(=O)n(C(C)(C)C(=O)NC(C)C)c(=O)c2c(C)c(-n3nccn3)sc21)OC(C)(C)C(C)=O [Compound I-178]
- pIC50 ([1]; Table 2a): 7.40 to 8.00
- pIC50 ([1]; Table 2b, additional results): 7.40 to 8.00
- MIC [2, 13]: 0.25 to 1 µg/mL (≈ 0.398 to 1.59 µM)
- MIC [3, 14]: 0.25 to 1 µg/mL (≈ 0.398 to 1.59 µM)
- MIC [4, 15]: 0.25 to 1 µg/mL (≈ 0.398 to 1.59 µM)

SMILES: COc1ccccc1[C@@H](O)Cn1c(=O)n(C(C)(C)C(=O)OCc2ccccc2)c(=O)c2c(C)c(-n3nccn3)sc21 [Compound I-179]
- pIC50 ([1]; Table 2a): < 7.40
- pIC50 ([1]; Table 2b, additional results): < 7.40
- MIC [2, 7]: > 4.01 µg/mL
- MIC [3, 9]: > 4.01 µg/mL
- MIC [4, 11]: 2.01 to 4 µg/mL (≈ 3.49 to 6.95 µM)

SMILES: COc1ccc(F)cc1[C@H](Cn1c(=O)n(C(C)(C)C(=O)N2CC=CC2)c(=O)c2c(C)c(-n3nccn3)sc21)OCC(C)=O [Compound I-190]
- pIC50 ([1]; Table 2b, additional results): 8.00 to 8.30
- MIC [2, 7]: > 4.01 µg/mL
- MIC [3, 9]: > 4.01 µg/mL
- MIC [4, 11]: 2.01 to 4 µg/mL (≈ 3.29 to 6.55 µM)

SMILES: Cc1c(-n2nccn2)sc2c1c(=O)n(C(C)(C)C(=O)NC(C)C)c(=O)n2C[C@H](O)c1cc(F)ccc1OCC#N [Compound I-199]
- pIC50 ([1]; Table 2b, additional results): 8.00 to 8.30
- MIC [2, 13]: 2.01 to 4 µg/mL (≈ 3.53 to 7.02 µM)
- MIC [3, 14]: 2.01 to 4 µg/mL (≈ 3.53 to 7.02 µM)
- MIC [4, 15]: 1.01 to 2 µg/mL (≈ 1.77 to 3.51 µM)

SMILES: Cc1c(-n2nccn2)sc2c1c(=O)n(C(C)(C)C(=O)NC(C)C)c(=O)n2C[C@H](OCC(C)(C)O)c1cc(F)ccc1O [Compound I-236]
- pIC50 ([1]; Table 2b, additional results): 7.40 to 8.00
- MIC [2, 7]: 1.01 to 2 µg/mL (≈ 1.68 to 3.32 µM)
- MIC [3, 9]: 2.01 to 4 µg/mL (≈ 3.34 to 6.64 µM)
- MIC [4, 11]: 2.01 to 4 µg/mL (≈ 3.34 to 6.64 µM)
